{"source": "patent US20210059959A1", "about": "“USE OF CANNABINOIDS IN THE TREATMENT OF MENTAL DISORDERS” (GW Pharma Limited, priority 2015, published 2021)", "test_system": "participants with schizophrenia or related psychotic disorder", "test": "Brief Assessment of Cognition in Schizophrenia (BACS), double-blind placebo-controlled study of CBD as adjunctive therapy", "format": "in vivo, human", "conditions": "all patients", "protocol": "Example 1 below describes the use of a highly purified cannabis extract comprising cannabidiol (CBD) in a human clinical trial. Example 1 describes data produced in a double-blind, randomised, placebo-controlled, parallel group study of highly purified CBD as adjunctive therapy in first line treatment of schizophrenia or related psychotic disorder.\nAn eight-week, multi-centre, double-blind, randomised, placebo-controlled, parallel group study was conducted with the aim to determine the efficacy, safety and tolerability of highly purified CBD as adjunctive therapy in first line treatment of schizophrenia or related psychotic disorder.\nThis study evaluated the efficacy of highly purified CBD compared with placebo on the participant's PANSS Total score, ‘P’, ‘N’, ‘G’, SANS and BACS scores.\nChanges from baseline in PANSS scores (Total, ‘P’, ‘N’ and ‘G’), SANS and BACS were recorded at the start of the study (baseline) and at the end of treatment (after 6 weeks treatment with CBD or placebo).\nFor inclusion in the study participants were required to be male or female aged 18 to 65 years, diagnosed with schizophrenia or a related psychotic disorder (such as schizoaffective or schizophreniform disorder) as defined by the Diagnostic and Statistical Manual of Mental Disorders Version 4. Participants must have been treated for a minimum of four-weeks and be on a stable dose of their current antipsychotic medication. […] A PANSS score in excess of 60 infers that the patient has symptoms related to schizophrenia or related disorders.\nThe participants were randomised to one of two treatment groups which each consisted of 39 participants. Treatment was administered as either 5 ml CBD (100 mg/ml) oral solution to be taken twice daily or 5 ml matched placebo oral solution to be taken twice daily.\nBrief Assessment of Cognition in Schizophrenia (BACS)\nThe BACS is an instrument used to assess the aspects of cognition found to be most impaired and most strongly correlated with outcome in participants with schizophrenia or related psychotic disorder. The BACS yields a high completion rate in participants with schizophrenia or related psychotic disorder.\nThe BACS consists of six domains: verbal memory; working memory; motor speed; verbal fluency; attention and speed information processing and executive functions. A score is obtained for each domain and a composite summary score is also calculated as the average of the scores from the six domains. An increase in score is indicative of an improvement in cognition.\nThis instrument was assessed at each assessment visit (Visits 1-4).", "data": [{"smiles": "C=C(C)[C@@H]1CCC(C)=C[C@H]1c1c(O)cc(CCCCC)cc1O", "note": "[CBD, Cannabidiol]", "values": [{"measurement": "Change in baseline scores, BACS composite score", "setting": "CBD adjunct, 6 weeks", "value": 3.5}, {"measurement": "Change in baseline scores, BACS sub-domain 1 Verbal memory", "setting": "CBD adjunct, 6 weeks", "value": 2.1}, {"measurement": "Change in baseline scores, BACS sub-domain 2 Working memory", "setting": "CBD adjunct, 6 weeks", "value": 1.8}, {"measurement": "Change in baseline scores, BACS sub-domain 3 Motor speed", "setting": "CBD adjunct, 6 weeks", "value": 6.2}, {"measurement": "Change in baseline scores, BACS sub-domain 4 Verbal fluency", "setting": "CBD adjunct, 6 weeks", "value": 4.3}, {"measurement": "Change in baseline scores, BACS sub-domain 5 Attention and speed information processing", "setting": "CBD adjunct, 6 weeks", "value": 4.4}, {"measurement": "Change in baseline scores, BACS sub-domain 6 Executive function", "setting": "CBD adjunct, 6 weeks", "value": 2.0}, {"measurement": "Change in baseline scores, BACS sub-domain 3 Motor speed: difference", "setting": "CBD vs placebo, P = 0.0439", "value": "(4.2)"}, {"measurement": "Change in baseline scores, BACS composite score: difference", "setting": "CBD vs placebo, P = 0.0677", "value": "(1.3)"}, {"measurement": "Change in baseline scores, BACS sub-domain 6 Executive function: difference", "setting": "CBD vs placebo, P = 0.0682", "value": "(1.4)"}, {"measurement": "Change in baseline scores, BACS sub-domain 2 Working memory: difference", "setting": "CBD vs placebo, P = 0.1414", "value": "(1.0)"}, {"measurement": "Change in baseline scores, BACS sub-domain 5 Attention and speed information processing: difference", "setting": "CBD vs placebo, P = 0.5915", "value": "(0.9)"}, {"measurement": "Change in baseline scores, BACS sub-domain 4 Verbal fluency: difference", "setting": "CBD vs placebo, P = 0.8059", "value": "(0.4)"}, {"measurement": "Change in baseline scores, BACS sub-domain 1 Verbal memory: difference", "setting": "CBD vs placebo, P = 0.9933", "value": "(0.1)"}]}]}
